Reference: patent publication US4175081A, “5-Substituted thiadiazole ureas” (priority 1977, dated 1979)

Key:
Crabgrass (CG) [1] = experiment: Pre-emergence herbicide test; assay type: in vivo, Digitaria sanquinalis; conditions: Digitaria sanguinalis, pre-emergence, 336 h, two weeks after treatment; for pest or weed control at 8966.8 g/ha: 8 lb/acre
Method: (§1) Crabgrass (CG)--Digitaria sanquinalis
(§2) All crop and weed species were planted individually in 3' plastic pots containing potting soil. Four seeds each of corn, cotton, and snapbeans were seeded to a depth equal to the diameter of the seed. All other species were surface seeded and sprinkled with screened soil in an amount sufficient to cover the seed. Immediately after planting, all pots were watered by sub-irrigation in greenhouse trays. Pots for the pre-emergence phase were seeded one day before treatment.
(§3) Spray hood constants required to deliver the above volume are as follows:
(§4) Formulations for spray applications were prepared in 50 ml volumes with the following three components: […]
(§5) Spray applications were made in a hood containing a removable belt and fixed spray nozzle. For passage through the spray hood, one pot of each specie (pre-emergence phase) was placed on the rear half of the flat. Treatments were removed to the greenhouse after spraying. Watering during the observation period was done only by sub-irrigation.
(§6) Two weeks after treatment, pre- and post-emergence injury or control was visually rated, and the results were as shown in the following tables. Pre-emergence data are provided in TABLE III and post-emergence data are provided in TABLE IV, for compounds having the formula illustrated in TABLE I. Correspondingly, pre-emergence and post-emergence data, respectively, are set forth in TABLES V AND VI, for compounds having the formula illustrated in TABLE II.

Johnson grass (JG) [2] = experiment: Pre-emergence herbicide test; assay type: in vivo, Sorgum helepense; conditions: Sorghum halepense, 336 h, two weeks after treatment; for pest or weed control at 8966.8 g/ha: 8 lb/acre
Method: (§7) Johnson grass (JG)--Sorgum helepense
as §2
(§8) Compounds were tested at rates of application equivalent to 8 lbs. of actual compound per acre in a spray volume of 38 gallons per acre. Spray hood constants required to deliver the above volume are as follows:
(§9) Formulations for spray applications were prepared in 50 ml volumes with the following three components:
(§10) Formulations for the 4 lbs/acre rate were prepared by adjusting the amount of active ingredient accordingly.
as §5, §6

Barnyard grass (BG) [3] = experiment: Pre-emergence herbicide test; assay type: in vivo; conditions: Echinochloa crus-galli, 336 h, two weeks after treatment; for pest or weed control at 8966.8 g/ha: 8 lb/acre
Method: (§11) Barnyard grass (BG)--Echinochloa crus-galli
as §2, §8, §9, §10, §5, §6

Turnip (TP) [4] = experiment: Pre-emergence herbicide test; assay type: in vivo, Brassica sp.; conditions: Brassica rapa, pre-emergence, 336 h, two weeks after treatment; for pest or weed control at 8966.8 g/ha: 8 lb/acre
Method: (§12) Turnip (TP)--Brassica sp.
as §2, §3, §4, §5, §6

Cotton (CT) [5] = experiment: Pre-emergence herbicide test; assay type: in vivo, Gossypium hirsutum var. DPL smooth leaf; conditions: Gossypium hirsutum, 336 h, two weeks after treatment; for pest or weed control at 8966.8 g/ha: 8 lb/acre
Method: (§13) Cotton (CT)--Gossypium hirsutum var. DPL smooth leaf
as §2, §8, §9, §10, §5, §6

Corn (CN) [6] = experiment: Pre-emergence herbicide test; assay type: in vivo; conditions: Zea mays, 336 h, two weeks after treatment; for pest or weed control at 8966.8 g/ha: 8 lb/acre
Method: as §2, §8, §9, §10, §5, §6

Bean (BN) [7] = experiment: Pre-emergence herbicide test; assay type: in vivo, Phaseolus vulgaris var. Black Valentine; conditions: Phaseolus vulgaris, 336 h, two weeks after treatment; for pest or weed control at 8966.8 g/ha: 8 lb/acre
Method: (§14) Bean (BN)--Phaseolus vulgaris var. Black Valentine
as §2, §8, §9, §10, §5, §6

Crabgrass (CG) [8] = experiment: Post-emergence herbicide test; assay type: in vivo, Digitaria sanquinalis; conditions: Digitaria sanguinalis, post-emergence, 336 h, two weeks after treatment; for pest or weed control at 8966.8 g/ha: 8 lb/acre
Method: as §1, §2
(§15) Planting dates for the post-emergence phase were varied so that all seedlings would reach the desired stage of development simultaneously. The proper stage of seedling development for treatment in the post-emergence phase is as follows:
as §3, §4, §5, §6

Johnson grass (JG) [9] = experiment: Post-emergence herbicide test; assay type: in vivo, Sorgum helepense; conditions: Sorghum halepense, 336 h, two weeks after treatment; for pest or weed control at 8966.8 g/ha: 8 lb/acre
Method: as §7, §2, §15, §8, §9, §10, §5, §6

Barnyard grass (BG) [10] = experiment: Post-emergence herbicide test; assay type: in vivo; conditions: Echinochloa crus-galli, 336 h, two weeks after treatment; for pest or weed control at 8966.8 g/ha: 8 lb/acre
Method: as §11, §2, §15, §8, §9, §10, §5, §6

Turnip (TP) [11] = experiment: Post-emergence herbicide test; assay type: in vivo, Brassica sp.; conditions: Brassica rapa, post-emergence, 336 h, two weeks after treatment; for pest or weed control at 8966.8 g/ha: 8 lb/acre
Method: as §12, §2, §15
Pigweed and turnips: 1 or 2 true leaves above visible cotyledons.
as §3, §4, §5, §6

Cotton (CT) [12] = experiment: Post-emergence herbicide test; assay type: in vivo, Gossypium hirsutum var. DPL smooth leaf; conditions: Gossypium hirsutum, post-emergence, 336 h, two weeks after treatment; for pest or weed control at 8966.8 g/ha: 8 lb/acre
Method: as §13, §2, §15
Cotton: first true leaf 1' in length; expanded cotyledons.
as §3, §9, §10, §5, §6

Corn (CN) [13] = experiment: Post-emergence herbicide test; assay type: in vivo; conditions: Zea mays, 336 h, two weeks after treatment; for pest or weed control at 8966.8 g/ha: 8 lb/acre
Method: as §2, §15, §8, §9, §10, §5, §6

Bean (BN) [14] = experiment: Post-emergence herbicide test; assay type: in vivo, Phaseolus vulgaris var. Black Valentine; conditions: Phaseolus vulgaris, post-emergence, 336 h, two weeks after treatment; for pest or weed control at 8966.8 g/ha: 8 lb/acre
Method: as §14, §2, §15
Beans: primary leaves expanded, growing point at primary leaf nodes.
as §3, §9, §10, §5, §6

CNC(=O)Nc1nnc(-c2ccc(Cl)cc2Cl)s1 [Example 75]
pest or weed control at 8966.8 g/ha (Crabgrass (CG) [1]): 0%
pest or weed control at 8966.8 g/ha (Johnson grass (JG) [2]): 0%
pest or weed control at 8966.8 g/ha (Barnyard grass (BG) [3]): 0%
pest or weed control at 8966.8 g/ha (Turnip (TP) [4]): 40%
pest or weed control at 8966.8 g/ha (Cotton (CT) [5]): 30%
pest or weed control at 8966.8 g/ha (Corn (CN) [6]): 0%
pest or weed control at 8966.8 g/ha (Bean (BN) [7]): 100%
pest or weed control at 8966.8 g/ha (Crabgrass (CG) [8]): 50%
pest or weed control at 8966.8 g/ha (Johnson grass (JG) [9]): 30%
pest or weed control at 8966.8 g/ha (Barnyard grass (BG) [10]): 40%
pest or weed control at 8966.8 g/ha (Turnip (TP) [11]): 80%
pest or weed control at 8966.8 g/ha (Cotton (CT) [12]): 50%
pest or weed control at 8966.8 g/ha (Corn (CN) [13]): 30%
pest or weed control at 8966.8 g/ha (Bean (BN) [14]): 100%

CNC(=O)Nc1nnc(-c2ccc(C)cc2)s1 [Example 76]
pest or weed control at 8966.8 g/ha (Crabgrass (CG) [1]): 20%
pest or weed control at 8966.8 g/ha (Johnson grass (JG) [2]): 0%
pest or weed control at 8966.8 g/ha (Barnyard grass (BG) [3]): 30%
pest or weed control at 8966.8 g/ha (Turnip (TP) [4]): 40%
pest or weed control at 8966.8 g/ha (Cotton (CT) [5]): 100%
pest or weed control at 8966.8 g/ha (Corn (CN) [6]): 50%
pest or weed control at 8966.8 g/ha (Bean (BN) [7]): 80%
pest or weed control at 8966.8 g/ha (Crabgrass (CG) [8]): 40%
pest or weed control at 8966.8 g/ha (Johnson grass (JG) [9]): 30%
pest or weed control at 8966.8 g/ha (Barnyard grass (BG) [10]): 40%
pest or weed control at 8966.8 g/ha (Turnip (TP) [11]): 60%
pest or weed control at 8966.8 g/ha (Cotton (CT) [12]): 50%
pest or weed control at 8966.8 g/ha (Corn (CN) [13]): 30%
pest or weed control at 8966.8 g/ha (Bean (BN) [14]): 50%

CCCCCCCCSc1nnc(NC(=O)NC)s1 [Example 78]
pest or weed control (Crabgrass (CG) [1]; 1 lb/acre): 20%
pest or weed control at 1120.85 g/ha (Johnson grass (JG) [2]; 1 lb/acre): 0%
pest or weed control at 1120.85 g/ha (Barnyard grass (BG) [3]; 1 lb/acre): 0%
pest or weed control at 1120.85 g/ha (Turnip (TP) [4]; 1 lb/acre): 0%
pest or weed control at 1120.85 g/ha (Cotton (CT) [5]; 1 lb/acre): 30%
pest or weed control at 1120.85 g/ha (Corn (CN) [6]; 1 lb/acre): 0%
pest or weed control at 1120.85 g/ha (Bean (BN) [7]; 1 lb/acre): 80%
pest or weed control at 1120.85 g/ha (Crabgrass (CG) [8]; 1 lb/acre): 30%
pest or weed control at 1120.85 g/ha (Johnson grass (JG) [9]; 1 lb/acre): 30%
pest or weed control at 1120.85 g/ha (Barnyard grass (BG) [10]; 1 lb/acre): 40%
pest or weed control at 1120.85 g/ha (Turnip (TP) [11]; 1 lb/acre): 100%
pest or weed control at 1120.85 g/ha (Cotton (CT) [12]; 1 lb/acre): 80%
pest or weed control at 1120.85 g/ha (Corn (CN) [13]; 1 lb/acre): 40%
pest or weed control at 1120.85 g/ha (Bean (BN) [14]; 1 lb/acre): 100%

CCSCCSc1nnc(NC(=O)NC)s1 [Example 80]
pest or weed control at 8966.8 g/ha (Crabgrass (CG) [1]): 50%
pest or weed control at 8966.8 g/ha (Johnson grass (JG) [2]): 20%
pest or weed control at 8966.8 g/ha (Barnyard grass (BG) [3]): 20%
pest or weed control at 8966.8 g/ha (Turnip (TP) [4]): 0%
pest or weed control at 8966.8 g/ha (Cotton (CT) [5]): 50%
pest or weed control at 8966.8 g/ha (Corn (CN) [6]): 0%
pest or weed control at 8966.8 g/ha (Bean (BN) [7]): 100%
pest or weed control at 8966.8 g/ha (Crabgrass (CG) [8]): 90%
pest or weed control at 8966.8 g/ha (Johnson grass (JG) [9]): 60%
pest or weed control at 8966.8 g/ha (Barnyard grass (BG) [10]): 50%
pest or weed control at 8966.8 g/ha (Turnip (TP) [11]): 100%
pest or weed control at 8966.8 g/ha (Cotton (CT) [12]): 80%
pest or weed control at 8966.8 g/ha (Corn (CN) [13]): 0%
pest or weed control at 8966.8 g/ha (Bean (BN) [14]): 100%
